According to patent EP0181129B1, “N6-substituted deoxyribose analogs of adenosines” (WARNER-LAMBERT COMPANY, priority 1984, dated 1986):

target: T1, adenosine A1 receptor (Rattus norvegicus, UniProt P25099); assay: Adenosine Receptor Binding - A1 Receptor Affinity (RBA1), [3H]-CHA displacement; details: 1.0 nM [3H]-CHA, rat whole brain membranes, one hour at 25°C; read-out: Receptor Binding RBA—1
T1 construct: brain minus cerebellum and brainstem from male Long Evans rats (150-200 g) was homogenized; from tissue; host or cells: rat whole brain minus cerebellum and brainstem, membrane homogenate
T1 sequence (P25099 1-326): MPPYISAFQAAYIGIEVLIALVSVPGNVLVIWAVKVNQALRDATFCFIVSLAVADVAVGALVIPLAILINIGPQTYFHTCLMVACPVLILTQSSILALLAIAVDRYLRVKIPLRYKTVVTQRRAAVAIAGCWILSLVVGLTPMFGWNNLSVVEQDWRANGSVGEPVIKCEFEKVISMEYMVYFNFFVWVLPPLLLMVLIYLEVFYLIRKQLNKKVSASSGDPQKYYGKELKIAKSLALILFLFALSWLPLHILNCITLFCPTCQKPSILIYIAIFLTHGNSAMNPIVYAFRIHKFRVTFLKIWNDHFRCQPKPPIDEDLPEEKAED
Description: While brain minus cerebellum and brainstem from male Long Evans rats (150-200 g) was homogenized in 30 volumes of ice-cold 0.05 M Tris-CHI buffer pH 7.7 using a Brinkman Polytron PT-10, (setting number 6 for 20 seconds) and centrifuged for ten minutes at 20,000 x g (Sorvall RC-2), 4°C. The supernatant was discarded, and the pellet was resuspended and centrifuged as before. The pellet was resuspended in 20 ml Tris-HCI buffer containing two International Units/ml of adenosine deaminase (Sigma type III from calf intestinal mucosa), incubated at 37°C for 30 minutes, then subsequently at 0°C for ten minutes. The homogenate was again centrifuged, and the final pellet was resuspended in ice-cold 0.05 M Tris-HCI buffer pH 7.7 to a concentration of 20 mg/ml original wet tissue weight and used immediately.
Tissue homogenate (10 mg/ml) was incubated in 0.05 M Tris-HCI buffer pH 7.7 containing 1.0 nM (^3H]-N^e-cyclohexyladenosine ([^3H]-CHA) with or without tests agents in triplicate for one hour at 25°C. Incubation volume was 2 ml. Unbound [^3H]-CHA was separated by rapid filtration under reduced pressure through Whatman glass fiber (GF/B) filters. The filters were rinsed three times with 5 ml of ice cold 0.05 M Tris-HCI buffer pH 7.7. The radio-labeled ligand retained on the filter was measured by liquid scintillation spectrophotometry after shaking the filters for one hour or longer on a mechanical shaker in 10 ml of Beckman Ready-Solv HP scintillation cocktail.
Nonspecific binding was defined as the binding which occurred in the presence of 1 mM theophylline. […] The Scatchard plot was calculated by linear regression of the line obtained by plotting the amount of radioligand bound (pmoles/gram of tissue) [formula] Since the amount of radioligand bound was a small fraction of the total amount added, free radioligand was defined as the concentration (nM) of radioligand added to the incubation mixture. The Hill coefficient was calculated by linear regression of the line obtained by plotting the log of the bound radioligand vs the log of the [formula] The maximal number of binding sites (Bmax) was calculated from the Scatchard plot.

IC50 [nM]	SMILES
1010	C[C@H]1O[C@@H](n2cnc3c(NCc4cccc5ccccc45)ncnc32)[C@H](O)[C@@H]1O [Example 20, N^6-α-Naphthylmethyl-5' -deoxyadenosine]
80	O[C@@H]1[C@H](O)[C@@H](CCl)O[C@H]1n1cnc2c(NC3CCc4ccccc43)ncnc21 (stereo partly drawn) [Example 23, (R)-N^6(1-Indanyl)-5'-deoxy-5'-chloroadenosine]

SMILES	IC50 [nM]
C[C@H]1O[C@@H](n2cnc3c(NC4CCCc5ccccc54)ncnc32)[C@H](O)[C@@H]1O (stereo partly drawn) [Example 19, N^6-1-Tetralinyl-5' -deoxyadenosine]	1370
